Patent publication US20220233566A1, “NOVEL CARBONATE COMPOUND HAVING PYRROLOPYRIMIDINE SKELETON OR PHARMACEUTICALLY ACCEPTABLE SALT THEREOF” (TAIHO PHARMACEUTICAL CO., LTD., priority 2019, published 2022)

Assays:
[1] = Presence of prodrug in mouse and absorbency (plasma AUC after oral administration); assay type: in vivo; conditions: male, Balb/cA, mouse, 7.6 umol/kg, mice, 7.6 μmol/kg, administered compound itself in plasma, read-out: AUC0-6hr
Protocol: The dosage amounts of the compounds of Comparative Examples 1 to 5 and Examples 1 to 26 are those (mole/10 mL/kg) shown in Tables. Solutions for administration were prepared with an 0.5% aqueous solutions of HPMC so as to satisfy the dosage amounts.
Note that, the “amount of mole/10 mL/kg” means as follows: for example “10 mmol/10 mL/kg” means that 10 mmol of a test compound per body-weight (1 kg) of a mouse was dispersed or dissolved in a solution (10 mL) for administration. The same applies hereinafter.
The solutions for administration prepared above were orally administered to mice (Balb/cA, male) not fasted each by use of an oral administration sonde.
The mice were anesthetized with isoflurane 0.5, 1, 2, 4 and 6 hours after administration and blood was taken from the facial vein by use of a specific needle (animal lancet) and a heparin-coated hematocrit tube.
The blood sampled was immediately centrifuged (13000 rpm, 2 minutes, 4° C.) to prepare the plasma samples. After proteins were removed from the plasma samples, the concentrations of the test compound in the plasma samples were measured by LC/MS/MS.
The value of “area under the curve” (AUC) of drug concentration in blood versus time was calculated using analysis software such as Phoenix (registered trademark) WinNonlin (registered trademark).
In Table 3, “Comparative Example 1” and “Comparative Example 2” represent the “compound (Br form) of Comparative Example 1” and the “compound (I form) of Comparative Example 2”, respectively. In Table 4, “Comparative Example 6” represents the “compound (C1 form) of Comparative Example 6”.

A172 = test: Growth suppression activity in human tumor cell line; assay type: cell-based; conditions: A 172, 72 h; Human brain tumor, A172, 3 days
Protocol: (§1) Human tumor cell lines different in type were suspended in mediums, seeded in individual wells of a multi-well plate and cultured. On the day after initiation of culture, serially diluted solutions of a compound were added. Culture was carried out for further 3 days. Cells were counted by a CellTiter-Glo (manufactured by Promega KK) in accordance with the protocol recommended by Promega KK. Cell viability was calculated in accordance with the equation shown below and the concentration (IC50 (μM)) of the compound at which 50% of cell growth is inhibited was obtained.
(§2) T: Intensity of light emitted from a well containing a compound
(§3) C: Intensity of light emitted from a well containing no compound

CCRFCEM = test: as above; assay type: cell-based; conditions: CCRF-CEM, 72 h, Human hematopoietic organ tumor, 3 days
Protocol: as §1, §2, §3

CFPAC1 = test: as above; assay type: cell-based; conditions: CFPAC-1, 72 h; Human pancreatic cancer, CFPAC1, 3 days
Protocol: as §1, §2, §3

DLD1 = test: as above; assay type: cell-based; conditions: DLD-1, 72 h; Human colorectal cancer, DLD1, 3 days
Protocol: as §1, §2, §3

H1703 = test: as above; assay type: cell-based; conditions: NCI-H1703, 72 h; Human lung cancer, H1703, 3 days
Protocol: as §1, §2, §3

H69 = test: as above; assay type: cell-based; conditions: NCI-H69, 72 h; Human lung cancer, H69, 3 days
Protocol: as §1, §2, §3

HCT116 = test: as above; assay type: cell-based; conditions: HCT-116, 72 h; Human colorectal cancer, HCT116, 3 days
Protocol: as §1, §2, §3

HT29 = test: as above; assay type: cell-based; conditions: HT-29, 72 h; Human colorectal cancer, HT29, 3 days
Protocol: as §1, §2, §3

LN229 = test: as above; assay type: cell-based; conditions: LN-229, 72 h; Human brain tumor, LN229, 3 days
Protocol: as §1, §2, §3

MIAPACA2 = test: as above; assay type: cell-based; conditions: MIA PaCa-2, 72 h; Human pancreatic cancer, MIAPACA2, 3 days
Protocol: as §1, §2, §3

MKN45 = test: as above; assay type: cell-based; conditions: MKN-45, 72 h; Human stomach cancer, MKN45, 3 days
Protocol: as §1, §2, §3

MOLT4 = test: as above; assay type: cell-based; conditions: MOLT-4, 72 h; Human hematopoietic organ tumor, MOLT4, 3 days
Protocol: as §1, §2, §3

MV-4-11 = test: as above; assay type: cell-based; conditions: MV4-11, 72 h; Human hematopoietic organ tumor, MV-4-11, 3 days
Protocol: as §1, §2, §3

A427 = test: Growth suppression activity to human tumor cell line (Evaluation 3); assay type: cell-based; conditions: A-427, 72 h; Human lung cancer, A427, 3 days
Protocol: as §1, with “(IC50 (nM))” for “(IC50 (μM))”, “of a” for “of the”
as §2, §3

H520 = test: as above; assay type: cell-based; conditions: NCI-H520, 72 h; Human lung cancer, H520, 3 days
Protocol: as §1, with “(IC50 (nM))” for “(IC50 (μM))”, “of a” for “of the”
as §2, §3

[2] = system: human brain tumor cell line (U-87 MG); test: Evaluation 1 of antitumor effect and toxicity in mouse (U-87 MG subcutaneous transplant); assay type: in vivo, BALB/cA Jcl-nu/nu mice; conditions: oral every day; Comparative Example 2 12 mg/kg/day, Example 1 15.4 mg/kg/day
Protocol: The day of grouping mice was determined Day 0.
IRs of Comparative Example 2-compound administration group and Example 1-compound administration group on the final day of evaluation (Day 6 in Comparative Example 2 and Day 13 in Example 1) are shown in FIG. 1 and BWC versus elapsed days is shown in FIG. 2.

[3] = system: human brain tumor cell line (U-87 MG); test: Combination use of compound and radiation, cell viability (crystal violet); assay type: cell-based; conditions: any order (same-day, compound first, radiation first), Student's t-test
Protocol: A human brain tumor cell line (U-87 MG) was suspended in a medium, seeded in individual wells of a multi-well plate and cultured. In the case where radiation exposure and addition of a compound are simultaneously carried out, both treatments were carried out on two days after initiation of culture. In the case where addition of a compound preceded radiation exposure, a serially diluted solution of a compound was added on the day after initiation of culture and radiation exposure was carried out on two days after initiation of culture. In the case where radiation exposure preceded addition of a compound, radiation exposure was carried out on the day after initiation of culture and a serially diluted solution of a compound was added on the two days after initiation of culture. Day 5 after seeding, cells were fixed with a 25% aqueous solution of glutaraldehyde and stained with a staining fluid (0.05 w/v % crystal violet in 20% methanol). After an extract (0.1 N NaH2PO4: 100% ethanol=1:1) was added and stirred, an absorbance at 540 nm was measured to obtain a cell count. The cell viability was calculated in accordance with the following equation and statistically processed in accordance with a Student's t-test.
T: Absorbance of a well exposed to radiation or containing a compound
C: Absorbance of a well neither exposed to radiation nor containing a compound

[4] = system: human brain tumor cell line (U-87 MG); test: Combinational effect of compound and temozolomide (TMZ), cell viability (crystal violet); assay type: cell-based; conditions: any order (same-day, compound first, TMZ first), Student's t-test
Protocol: A human brain tumor cell line (U-87 MG) was suspended in a medium, seeded in individual wells of a multi-well plate and cultured. In the case where two compounds are simultaneously added, both compounds were added on two days after initiation of culture. In the case where addition of the compound of the present invention preceded, a serially diluted solution of the compound was added on the day after initiation of culture and a serially diluted solution of TMZ was added two days after initiation of culture. In the case where addition of TMZ preceded, a serially diluted solution of TMZ was added on the day after initiation of culture and a serially diluted solution of the compound was added on two days after initiation of culture. Day 5 after seeding, cells were fixed with a 25% aqueous solution of glutaraldehyde and stained with a staining fluid (0.05 w/v % crystal violet in 20% methanol). After an extract (0.1 N NaH2PO4: 100% ethanol=1:1) was added and stirred, an absorbance at 540 nm was measured to obtain a cell count. The cell viability was calculated in accordance with the following equation and statistically processed in accordance with a Student's t-test.
T: Absorbance of a well containing TMZ or a compound
C: Absorbance of a well containing neither TMZ nor a compound

- AUC(0-t) [1]: 0.21 µM·h
- IC50 (A172): 30 nM
- IC50 (CCRFCEM): 40 nM
- IC50 (CFPAC1): 50 nM
- IC50 (DLD1): 40 nM
- IC50 (H1703): 40 nM
- IC50 (H69): 60 nM
- IC50 (HCT116): 90 nM
- IC50 (HT29): 130 nM
- IC50 (LN229): 20 nM
- IC50 (MIAPACA2): 40 nM
- IC50 (MKN45): 130 nM
- IC50 (MOLT4): 10 nM
- IC50 (MV-4-11): 4 nM
- IC50 (A427): 98 nM
- IC50 (H520): 29 nM
Structure (SMILES): Nc1ncnc2c1c(I)cn2[C@@H]1O[C@H](CO)[C@@H](O)[C@@H]1F [Comparative Example 2, (2R,3R,4S,5R)-5-(4-amino-5-iodo-7H-pyrrolo[2,3-d]pyrimidin-7-yl)-4-fluoro-2-(hydroxymethyl) tetrahydrofuran-3-ol]
- final day of evaluation (administration continued as long as weight loss was acceptable, until 20% or more) [2]: 6 days
- cell viability, combination treatment with radiation exposure compared to the single treatments [3]: cell viability significantly decreased
- cell viability, combination treatment with TMZ compared to the single treatments [4]: significant decrease in cell viability
